Reference: ChEMBL document CHEMBL1201862, “PubChem BioAssay data set” (2004)
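Values below derive from 48-hour exposures of cells grown in 96-well plates, with endpoints linearly interpolated between the two concentrations bracketing the appropriate inhibition level. The concentration for 50% growth inhibition is given as GI50.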 Active and inactive are the calls of the source. Rule as the data show it: active = GI50 up to about 1.1 µM and inactive = higher.

Experiments:
Test in all cases: NCI tumour cell line growth inhibition, 48 h
A549 = tested on: A549
ACHN = tested on: ACHN
COLO 205 = tested on: COLO 205
HCC 2998 = tested on: HCC 2998
HCT-15 = tested on: HCT-15
HOP-62 = tested on: HOP-62
HOP-92 = tested on: HOP-92
IGROV-1 = tested on: IGROV-1
M14 = tested on: M14
Malme-3M = tested on: Malme-3M
NCI-H460 = tested on: NCI-H460
NCI/ADR-RES = tested on: NCI/ADR-RES
OVCAR-3 = tested on: OVCAR-3
OVCAR-4 = tested on: OVCAR-4
RPMI-8226 = tested on: RPMI-8226
SF-295 = tested on: SF-295
SNB-19 = tested on: SNB-19
SR = tested on: SR
T47D = tested on: T47D
TK-10 = tested on: TK-10

Row | SMILES | GI50 (A549) | GI50 (ACHN) | GI50 (COLO 205) | GI50 (HCC 2998) | GI50 (HCT-15) | GI50 (HOP-62) | GI50 (HOP-92) | GI50 (IGROV-1) | GI50 (M14) | GI50 (Malme-3M) | GI50 (NCI-H460) | GI50 (NCI/ADR-RES) | GI50 (OVCAR-3) | GI50 (OVCAR-4) | GI50 (RPMI-8226) | GI50 (SF-295) | GI50 (SNB-19) | GI50 (SR) | GI50 (T47D) | GI50 (TK-10)
1 | COC(=O)c1cc2c3c(cc(NCCN)c2[nH]1)N(C(=O)c1cc2cc(OC)c(OC)c(OC)c2[nH]1)CC3CCl (stereo not given) | 0.145 µM (active) | 0.0889 µM (active) | 0.0559 µM (active) | 0.0982 µM (active) | 0.573 µM | 0.17 µM (active) | 0.0703 µM (active) | 0.012 µM (active) | 0.118 µM (active) | 0.0377 µM (active) | 0.0502 µM (active) | 0.358 µM (active) | 0.0728 µM (active) | 0.0925 µM (active) | 0.25 µM (active) | 0.228 µM (active) | 0.0183 µM (active) | 0.0153 µM (active) | 0.031 µM (active) | 0.366 µM (active)
2 | FC(F)(F)c1n[nH]c(SCc2ccc(Cl)cc2)n1 | > 100 µM (inactive) | > 100 µM (inactive) | > 100 µM (inactive) | > 100 µM (inactive) | > 100 µM | > 100 µM (inactive) | > 100 µM (inactive) | > 100 µM (inactive) | > 100 µM (inactive) | > 100 µM (inactive) | > 100 µM (inactive) | > 100 µM (inactive) | > 100 µM (inactive) | > 100 µM (inactive) | > 100 µM (inactive) | > 100 µM (inactive) | > 100 µM (inactive) | > 100 µM (inactive) | > 100 µM (inactive) | > 100 µM (inactive)
3 | CCOC(=O)/C(C#N)=C(/NS(=O)(=O)c1cc(C)c(Cl)cc1[S-])[n+]1ccc(N(C)C)cc1 | > 100 µM (inactive) | > 100 µM (inactive) | > 100 µM (inactive) | > 100 µM (inactive) | > 100 µM | > 100 µM (inactive) | 27.4 µM (inactive) | > 100 µM (inactive) | > 100 µM (inactive) | > 100 µM (inactive) | > 100 µM (inactive) | > 100 µM (inactive) | > 100 µM (inactive) | > 100 µM (inactive) | > 100 µM (inactive) | > 100 µM (inactive) | > 100 µM (inactive) | > 100 µM (inactive) | > 100 µM (inactive) | > 100 µM (inactive)
4 | COc1cc(/C=C2\CCC(CN(C)C)C2=O)ccc1OC(=O)c1ccccc1 (stereo not given) | 23.6 µM (inactive) | 15.3 µM (inactive) | 5.69 µM (inactive) | 16.3 µM (inactive) | 8.17 µM | 16.3 µM (inactive) | 17.4 µM (inactive) | 13.8 µM (inactive) | 9.51 µM (inactive) | 15.9 µM (inactive) | 19.3 µM (inactive) | 16.5 µM (inactive) | 8.91 µM (inactive) | 12.4 µM (inactive) | 2.31 µM (inactive) | 17.7 µM (inactive) | 11.4 µM (inactive) | 2.56 µM (inactive) | 3.76 µM (inactive) | 11.3 µM (inactive)
